Data on three molecules can be found in BindingDB's records for doi:10.7270/Q2D50KGC (Burnham Center For Chemical Genomics, 2011).

This test has as its target T1, Endoribonuclease toxin MazF (Escherichia coli (strain K12), UniProt P0AE70).
T1 sequence (P0AE70 whole entry): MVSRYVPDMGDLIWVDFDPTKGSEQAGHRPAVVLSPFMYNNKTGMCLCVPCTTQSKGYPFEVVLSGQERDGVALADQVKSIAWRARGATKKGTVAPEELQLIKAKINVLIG
Description: MazEF toxin-antitoxin RNase activation – biochemical, fluorescence, single-stranded RNA substrate, SAR follow-up (AID 588603).

Usually EC50 stands for the concentration needed to bring the measured effect to its halfway point. High values mean a less potent agent, low ones a more potent agent. Consider `C=CCOc1cccc(C2C(C(=O)c3ccc(C)o3)C(=O)C(=O)N2c2nccs2)c1` (stereo not drawn) [3-(5-methylfuran-2-yl)carbonyl-4-oxidanyl-2-(3-prop-2-enoxyphenyl)-1-(1,3-thiazol-2-yl)-2H-pyrrol-5-one], for which the EC50 is 22.3 µM.

As to `N#Cc1ccc(-n2c(O)c3[nH][nH]c(C(=O)c4ccc5ccccc5n4)c-3c2=O)cc1` [4-[(3aS,6aS)-4,6-dioxo-3-[oxo(2-quinolinyl)methyl]-3a,6a-dihydro-1H-pyrrolo[3,4-c]pyrazol-5-yl]benzonitrile], the EC50 worked out at 7.74 µM.

For the molecule `O=C(c1ccc2ccccc2n1)c1[nH][nH]c2c(O)n(-c3cccc(F)c3)c(=O)c1-2` [(3aS,6aS)-5-(3-fluorophenyl)-3-[oxo(2-quinolinyl)methyl]-3a,6a-dihydro-1H-pyrrolo[3,4-c]pyrazole-4,6-dione], the EC50 was 24.4 µM.
